Legend:
[1] = Liquid, Capillary tube (Ostwald / Ubbelohde) method
[2] = xn = mol fraction of the nth substance listed; details: Liquid, isochoric method, x1 = 0.1965

CCCCCCCCCCO [decan-1-ol]
[1]
Details	viscosity [mPa·s]
298.15 K, 2000 kPa	11.25
298.15 K, 3990 kPa	11.54
298.15 K, 6010 kPa	11.79
298.15 K, 8010 kPa	12.05
298.15 K, 10010 kPa	12.35
298.15 K, 13010 kPa	12.74
298.15 K, 16010 kPa	13.16
298.15 K, 19010 kPa	13.57
298.15 K, 22010 kPa	14.01
298.15 K, 25000 kPa	14.46
298.15 K, 28000 kPa	14.89
298.15 K, 29990 kPa	15.19
303.15 K, 1990 kPa	8.895
303.15 K, 4000 kPa	9.117
303.15 K, 5980 kPa	9.337
303.15 K, 8010 kPa	9.562
303.15 K, 10020 kPa	9.784
303.15 K, 12980 kPa	10.11
303.15 K, 15970 kPa	10.44
303.15 K, 19020 kPa	10.78
303.15 K, 22000 kPa	11.11
303.15 K, 24980 kPa	11.44
303.15 K, 27980 kPa	11.77
303.15 K, 30010 kPa	12
313.15 K, 2030 kPa	6.219
313.15 K, 4020 kPa	6.374
313.15 K, 6000 kPa	6.526
313.15 K, 7980 kPa	6.68
313.15 K, 9980 kPa	6.835
313.15 K, 12990 kPa	7.068
313.15 K, 15990 kPa	7.299
313.15 K, 18990 kPa	7.532
313.15 K, 22010 kPa	7.766
313.15 K, 25020 kPa	7.999
313.15 K, 28020 kPa	8.231
313.15 K, 29980 kPa	8.382
323.15 K, 2000 kPa	4.735
323.15 K, 4010 kPa	4.857
323.15 K, 6010 kPa	4.97
323.15 K, 8010 kPa	5.091
323.15 K, 9990 kPa	5.202
323.15 K, 13010 kPa	5.369
323.15 K, 16010 kPa	5.54
323.15 K, 19020 kPa	5.726
323.15 K, 22020 kPa	5.892
323.15 K, 25010 kPa	6.072
323.15 K, 28000 kPa	6.247
323.15 K, 30010 kPa	6.373

CCCCCCCC [octane] + O=C=O
mass density [kg/m3], [2]
Details	313.05 K	322.96 K	332.84 K
8000 kPa	740.9	–	–
9000 kPa	750.1	716.1	–
10000 kPa	758.3	724.1	–
11000 kPa	765.4	731.9	–
12000 kPa	771.9	739.1	–
13000 kPa	777.9	745.8	–
14000 kPa	783.5	752	–
15000 kPa	788.7	757.7	–
16000 kPa	793.6	763.1	732.9
17000 kPa	798.2	768.2	739.2
18000 kPa	802.7	772.9	745.1
19000 kPa	–	777.5	750.6
19170 kPa	807	–	–
20000 kPa	811.1	781.8	755.8
21000 kPa	815	786	–
21020 kPa	–	–	760.8
22000 kPa	818.7	789.9	–
22020 kPa	–	–	765.4
22960 kPa	–	793.6	–
22980 kPa	–	–	769.7
22990 kPa	822.2	–	–
23960 kPa	–	797.3	–
23990 kPa	–	–	773.9
24000 kPa	825.6	–	–
24550 kPa	827.5	–	–
24790 kPa	–	–	777.1

Reference: the NIST ThermoML archive (doi:10.1021/acs.jced.8b01027)
